Results from patent US10633407B2, “14-membered ketolides and methods of their preparation and use” (President and Fellows of Harvard College, priority 2014, dated 2020).
≈ marks a conversion by molar mass, not a printed value. Like-named read-outs stand apart in the source and are kept apart here.

How the values were obtained:
Experiment in all cases: CLSI broth dilution MIC determination
Assay type in all cases: cell-based
[1] = test system: A. baumannii MP-577 Clinical-AZT low; settings: Acinetobacter baumannii, read-out: MIC
[2] = test system: P. aeruginosa ATCC 27853
[3] = test system: P. aeruginosa MP-7 PAO1; settings: Pseudomonas aeruginosa, read-out: MIC
[4] = test system: S. aureus USA600, GISA
Procedure, shortened: (§1)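 Compounds are serially diluted in broth per CLSI standard methods to give the MIC; azithromycin and solithromycin act as comparator macrolides in many cases, and resistance genotypes may be inducible or constitutive.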

[5] = test system: S. aureus ATCC 29213
Procedure, shortened: as §1

[6] = test system: S. aureus MRSA: USA300
Procedure, shortened: as §1

[7] = test system: E. coli MP-541 clinical; settings: Escherichia coli, MP541CLINICAL, read-out: MIC
Procedure, shortened: as §1

[8] = test system: E. coli ATCC 25922
Procedure, shortened: as §1

[9] = test system: S. aureus erm A genotype
Procedure, shortened: as §1

[10] = test system: S. aureus (MRSA) MP-513 ST-228 cErm (Clinical-cErm); settings: Staphylococcus aureus, read-out: MIC
Procedure, shortened: as §1

[11] = test system: S. pneumoniae ATCC 49619
Procedure, shortened: as §1

[12] = test system: S. aureus MP-17 ATCCBAA-977 (BAA 977 iErm); settings: Staphylococcus aureus; S. aureus MP-17, ATCCBAA-977, iErm; read-out: MIC
Procedure, shortened: as §1

[13] = test system: E. coli MP-532 clinical-cErmB; settings: Escherichia coli
Procedure, shortened: as §1

[14] = test system: S. aureus MRSA: USA100
Procedure, shortened: as §1

[15] = test system: S. pneumoniae mef A genotype (first strain so labelled); settings: Streptococcus pneumoniae, first strain (MP-626 UNT-038)
Procedure, shortened: as §1

[16] = test system: S. pneumoniae mef A genotype (second strain so labelled)
Procedure, shortened: as §1

[17] = test system: E. coli MP-9 ATCC25922:tolC; settings: Escherichia coli, ATCC25922
Procedure, shortened: as §1

[18] = test system: S. pyogenes Macrolide-resistant
[19] = test system: S. pyogenes ATCC 19615
[20] = test system: E. faecalis ATCC 29212
[21] = test system: K. pneumoniae MP-548 clinical; settings: Klebsiella pneumoniae, MP548CLINICAL, read-out: MIC
[22] = test system: E. faecalis Vancomycin-resistant
[23] = test system: P. aeruginosa MP-8 PAO1:mex (mex-oprM-deletion); settings: Pseudomonas aeruginosa, PAO1
[24] = test system: K. pneumoniae MP-546 Clinical-MDR; settings: Klebsiella pneumoniae, read-out: MIC
[25] = test system: A. baumannii ATCC 19606
[26] = test system: K. pneumoniae ATCC 10031
[27] = test system: A. baumannii MP-576 Clinical-MDR; settings: Acinetobacter baumannii, read-out: MIC
[28] = test system: A. baumannii chromosomal class C; settings: Gram-negative
[29] = test system: E. coli CTX-M-14; settings: Gram-negative
Procedure, shortened: as §1

[30] = test system: E. coli NDM-1; settings: Gram-negative
Procedure, shortened: as §1

[31] = test system: H. influenzae ATCC49247; settings: Gram-negative
Procedure, shortened: as §1

[32] = test system: K. pneumoniae TEM-10; settings: Gram-negative
[33] = test system: E. coli TEM-1; settings: E. coli TEM-1; Gram-negative
Procedure, shortened: as §1

[34] = test system: S. pneumoniae erm B + mef A genotype; settings: S. pneumoniae erm B + mef A genotype; Gram-positive
Procedure, shortened: as §1

[35] = test system: K. pneumoniae KPC-2; settings: Gram-negative
[36] = test system: K. pneumoniae SHV-12; settings: Gram-negative
[37] = test system: H. influenzae Erythro >4, Azithro 1; settings: H. influenzae Erythro >4, Azithro 1; Gram-negative
Description: MIC data was collected for the novel macrolides that this platform has produced against over 21 unique strains of B. subtilis, E. coli, S. aureus, S. pneumoniae, and H. influenzae, including several multidrug-resistant strains, with a special focus on macrolide resistant mechanisms (vide supra). […] CLSI standard procedures for broth dilution MIC determination were used. […] These genotypes can be constitutive or inducible.

[38] = test system: A. baumannii IMP-4; settings: Gram-negative
[39] = test system: A. baumannii imipenem-resistant; settings: Gram-negative
[40] = test system: P. aeruginosa HPA101-1477; settings: Gram-negative
[41] = P. aeruginosa ATCC 27853, Gram-negative
[42] = S. aureus USA600, GISA, Gram-positive
[43] = S. aureus ATCC 29213, Gram-positive
[44] = S. aureus MRSA: USA300, Gram-positive
[45] = E. coli ATCC 25922, Gram-negative
[46] = S. aureus erm A genotype, Gram-positive
[47] = S. pneumoniae ATCC 49619, Gram-positive
[48] = S. aureus MRSA: USA100, Gram-positive
[49] = S. pyogenes Macrolide-resistant, Gram-positive
[50] = S. pyogenes ATCC 19615, Gram-positive
[51] = E. faecalis ATCC 29212, Gram-positive
[52] = E. faecalis Vancomycin-resistant, Gram-positive
[53] = A. baumannii ATCC 19606, Gram-negative
[54] = K. pneumoniae ATCC 10031, Gram-negative

Compound `CC[C@H]1OC(=O)[C@H](C)C(=O)[C@H](C)[C@@H](O[C@@H]2OC(C)CC(N(C)C)C2O)[C@](C)(OC)C[C@@H](C)C(=O)[C@H](C)[C@H]2N(CC#CCn3cc(-c4cc(F)ccn4)nn3)C(=O)O[C@]12C` (some centres unmarked) [FSM-100566] has an MIC [1] of 64 µg/mL (≈ 77.4 µM), an MIC ([2]; Pseudomonas aeruginosa, ATCC27853, P. aeruginosa ATCC 27853 (MP-3), read-out: MIC) of 64 µg/mL (≈ 77.4 µM) and an MIC [3] of over 64 µg/mL. For the same compound, the MIC ([4]; Staphylococcus aureus, S. aureus USA600, GISA (MP-619 UNT-120), read-out: MIC) was 64 µg/mL (≈ 77.4 µM), the MIC ([5]; Staphylococcus aureus, ATCC29213, S. aureus ATCC 29213 (MP-12), read-out: MIC) was 0.06 µg/mL (≈ 0.0726 µM) and the MIC ([6]; Staphylococcus aureus, S. aureus MRSA: USA300 (MP-549, msr(a)), read-out: MIC) was 0.125 µg/mL (≈ 0.151 µM). The MIC [7] was 32 µg/mL (≈ 38.7 µM), the MIC ([8]; Escherichia coli, ATCC25922, E. coli ATCC 25922 (MP-4), read-out: MIC) was 32 µg/mL (≈ 38.7 µM) and the MIC ([9]; Staphylococcus aureus, S. aureus erm A genotype (MP-620 UNT-146), read-out: MIC) was over 64 µg/mL. It also gave an MIC [10] of over 64 µg/mL, an MIC ([11]; Streptococcus pneumoniae, ATCC49619, S. pneumoniae ATCC 49619 (MP-21), read-out: MIC) of under 0.03 µg/mL and an MIC [12] of 0.06 µg/mL (≈ 0.0726 µM). It also gave an MIC [13] of over 64 µg/mL, an MIC ([14]; Staphylococcus aureus, S. aureus MRSA: USA100 (MP-618 UNT-096), read-out: MIC) of over 64 µg/mL and an MIC [15] of under 0.03 µg/mL. For the same compound, the MIC ([16]; Streptococcus pneumoniae, second strain (MP-627 UNT-039), read-out: MIC) was under 0.03 µg/mL, the MIC [17] was 2 µg/mL (≈ 2.42 µM) and the MIC ([18]; Streptococcus pyogenes, S. pyogenes Macrolide-resistant (MP-625 UNT-014), read-out: MIC) was under 0.03 µg/mL. The MIC ([19]; Streptococcus pyogenes, ATCC19615, S. pyogenes ATCC 19615 (MP-19), read-out: MIC) was under 0.03 µg/mL, the MIC ([20]; Enterococcus faecalis, ATCC29212, E. faecalis ATCC 29212 (MP-24), read-out: MIC) was under 0.03 µg/mL and the MIC [21] was 64 µg/mL (≈ 77.4 µM). For the same compound, the MIC ([22]; Enterococcus faecalis, E. faecalis Vancomycin-resistant (UNT-039), read-out: MIC) was 8 µg/mL (≈ 9.67 µM), the MIC [23] was 8 µg/mL (≈ 9.67 µM) and the MIC [24] was over 64 µg/mL. It also gave an MIC ([25]; Acinetobacter baumannii, ATCC19606, A. baumannii ATCC 19606 (MP-15), read-out: MIC) of 16 µg/mL (≈ 19.3 µM), an MIC ([26]; Klebsiella pneumoniae, ATCC10031, K. pneumoniae ATCC 10031 (MP-14), read-out: MIC) of 8 µg/mL (≈ 9.67 µM) and an MIC [27] of over 64 µg/mL.
`CC[C@H]1OC(=O)[C@H](C)C(=O)[C@H](C)[C@@H](O[C@@H]2OC(C)CC(N(C)C)C2O)[C@](C)(OC)C[C@@H](C)C(=O)[C@H](C)[C@H]2N(CC3CC3Cn3cc(-c4cccc(N)c4)nn3)C(=O)O[C@]12C` (single isomer, unassigned) [FSM-100434] showed an MIC [28] of 16 µg/mL (≈ 19.1 µM), an MIC [2, 41] of over 32 µg/mL and an MIC [29] of over 32 µg/mL. For the same compound, the MIC [4, 42] was over 32 µg/mL, the MIC [30] was over 32 µg/mL and the MIC [5, 43] was 0.25 µg/mL (≈ 0.298 µM). It also gave an MIC [31] of over 32 µg/mL, an MIC [6, 44] of over 32 µg/mL and an MIC [8, 45] of over 32 µg/mL. The MIC [9, 46] was over 32 µg/mL, the MIC [11, 47] was under 0.0312 µg/mL and the MIC [32] was over 32 µg/mL. For the same compound, the MIC [14, 48] was over 32 µg/mL, the MIC [33] was over 32 µg/mL and the MIC [34] was 1 µg/mL. For the same compound, the MIC ([16]; Gram-positive) was 0.125 µg/mL (≈ 0.149 µM), the MIC [18, 49] was under 0.0312 µg/mL and the MIC [19, 50] was under 0.0312 µg/mL. It also gave an MIC [35] of over 32 µg/mL, an MIC [20, 51] of under 0.0312 µg/mL and an MIC [36] of over 32 µg/mL. For the same compound, the MIC [22, 52] was over 32 µg/mL, the MIC [37] was over 32 µg/mL and the MIC [38] was over 32 µg/mL. It also gave an MIC [39] of 16 µg/mL (≈ 19.1 µM), an MIC [25, 53] of 16 µg/mL (≈ 19.1 µM) and an MIC [26, 54] of 32 µg/mL (≈ 38.1 µM). The MIC [40] was over 32 µg/mL.
Compound `CC[C@H]1OC(=O)[C@H](C)C(=O)[C@H](C)[C@@H](O[C@@H]2OC(C)CC(N(C)C)C2O)[C@](C)(OC)C[C@@H](C)C(=O)[C@H](C)[C@H]2N(C/C=C/Cn3nnc(-c4ccccn4)n3)C(=O)O[C@]12C` (some centres unmarked) [FSM-100371] has an MIC [28] of 32 µg/mL (≈ 39.4 µM), an MIC [2, 41] of over 32 µg/mL and an MIC [29] of over 32 µg/mL. For the same compound, the MIC [4, 42] was over 32 µg/mL, the MIC [30] was over 32 µg/mL and the MIC [5, 43] was under 0.0312 µg/mL. The MIC [31] was 2 µg/mL (≈ 2.46 µM), the MIC [6, 44] was 4 µg/mL (≈ 4.93 µM) and the MIC [8, 45] was over 32 µg/mL. For the same compound, the MIC [9, 46] was over 32 µg/mL, the MIC [11, 47] was under 0.0312 µg/mL and the MIC [32] was over 32 µg/mL. For the same compound, the MIC [14, 48] was over 32 µg/mL, the MIC [33] was over 32 µg/mL and the MIC [34] was 0.25 µg/mL. The MIC ([16]; Gram-positive) was 0.125 µg/mL (≈ 0.154 µM), the MIC [18, 49] was 0.0625 µg/mL (≈ 0.077 µM) and the MIC [19, 50] was under 0.0312 µg/mL. It also gave an MIC [35] of over 32 µg/mL, an MIC [20, 51] of under 0.0312 µg/mL and an MIC [36] of over 32 µg/mL. It also gave an MIC [22, 52] of over 32 µg/mL, an MIC [37] of 2 µg/mL (≈ 2.46 µM) and an MIC [38] of over 32 µg/mL. The MIC [39] was over 32 µg/mL, the MIC [25, 53] was 16 µg/mL (≈ 19.7 µM) and the MIC [26, 54] was 8 µg/mL (≈ 9.85 µM). For the same compound, the MIC [40] was over 32 µg/mL.
